Key:
folate receptor = target: T1, folate receptor (Homo sapiens, UniProt P15328); assay: In vitro binding affinity assay, displacement of 3H-folic acid on KB cells; conditions: 3H-folic acid 0.82 nM, 4° C., 30 min; for IC50: three independent experiments, read-out: mean inhibitory concentration of 50% (IC50 value)
T1 construct: endogenous in cells; host or cells: KB cells (human cervical carcinoma), whole-cell suspension
Procedure: Binding affinity assays were performed with KB cells derived from human cervical carcinoma, where the folate receptor is overexpressed. The cells were cultured as monolayers in 75 cm^2 flasks at 37° C. in a humidified atmosphere (7.5% CO2). The cells were kept in a special folate-deficient RPMI 1640 medium (FFRPMI 1640; Cell Culture Technologies) supplemented with heat-inactivated fetal calf serum (10%), L-glutamine, penicillin (100 IU/mL), and streptomycin ([…]). The fetal calf serum was the only source of folate in the medium, which is reported to provide a final folate concentration of about 3 nmol/mL, which is at the low end of the physiologic serum concentration in humans.
A cell suspension in pure FFRPMI 1640 medium (no additives, ice-cold) was added into 1.5 mL vials (7000 cells in 240 μL). […] After incubation, the suspension was centrifuged at 3500 rpm and 4° C. for 5 min and the supernatant was removed. By addition of 0.5 mL of 1 N NaOH, the cell pellets were resuspended and lysed at the same time. The lysed cells were stirred in a vortex mixer and transferred into scintillation tubes containing 4 mL of scintillation cocktail (Ultima Gold; Perkin Elmer). Radioactivity was measured using a β-counter (LS6500; Beckman), and the inhibitory concentrations of 50% were determined from displacement curves using Graph Pad Prism 4.0 software.

[1] = type: physicochemical; conditions: pH 7.4
Procedure: The distribution coefficient (log D7.4) was determined by the shake flask method. In brief, γ-[^18F]-glucose folate was dissolved in a mixture of phosphate buffer (500 μL, pH 7.4) and n-octanol ([…]) at 20° C. The sample was equilibrated for 15 min in an over-head shaker. The two phases were separated by centrifugation (3 min, 5000 rpm) and 50 μL aliquots were taken from each layer and counted for radioactivity in a γ-counter. The partition coefficient is expressed as the ratio of radioactivity (cpm) in the octanol phase to the one in the PBS phase represents the mean±standard deviation of eight measurements.

KB tumor xenografts = assay: PET imaging of KB tumor xenografts; type: in vivo; conditions: for PET images of KB tumor xenografts: 75-105 min p.i.; for specificity of uptake (blocking with folic acid): PET, excess folic acid 10 min prior to radiotracer
Procedure: PET experiments were performed with Explore VISTA PET/CT tomograph (GE), which provides an ultrahigh resolution of less than 0.9 mm. Animals were lightly restrained and injected with 10-14 MBq of γ-[^18F]-glucose folate (100-150 μL per injection) via a lateral tail vein. […] Animals were anesthetized with isoflurane in an air/oxygen mixture. The PET scans were acquired from 75-105 min post-injection. The fused datasets of PET and CT were analyzed with Amira (Version 4) postprocessing software.

T1 sequence (P15328 25-234): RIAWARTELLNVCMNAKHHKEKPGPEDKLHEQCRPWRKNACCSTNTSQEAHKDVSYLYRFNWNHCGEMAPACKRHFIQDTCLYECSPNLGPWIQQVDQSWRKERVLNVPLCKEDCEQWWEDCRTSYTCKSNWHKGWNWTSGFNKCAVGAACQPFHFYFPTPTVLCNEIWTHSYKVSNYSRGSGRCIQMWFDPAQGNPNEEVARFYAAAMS

| Compound | Ki (folate receptor) | IC50 (folate receptor) | log D7.4 [1] | PET images of KB tumor xenografts (KB tumor xenografts) | specificity of uptake (blocking with folic acid) (KB tumor xenografts) |
| --- | --- | --- | --- | --- | --- |
| Nc1nc2ncc(CNc3ccc(C(=O)NC(CCC(=O)O)C(=O)NC(Cc4cn(C5OC(CO)C(O)C(O)C5F)nn4)C(=O)O)cc3)nc2c(=O)[nH]1 (stereo not drawn) [α-glucose folate, α-[^19F]-Glucose Folate] | 0.7 ± 0.2 nM | 1.4 ± 0.2 nM |  |  |  |
| Nc1nc2ncc(CNc3ccc(C(=O)NC(CCC(=O)NC(Cc4cn(C5OC(CO)C(O)C(O)C5[18F])nn4)C(=O)O)C(=O)O)cc3)nc2c(=O)[nH]1 (stereo not shown) [γ-[^18F]-glucose folate] |  |  | −4.21±0.14 | excellent images of KB tumor xenografts | highly specific and blocked by natural folic acid |
| Nc1nc2ncc(CNc3ccc(C(=O)NC(CCC(=O)NC(Cc4cn(C5OC(CO)C(O)C(O)C5F)nn4)C(=O)O)C(=O)O)cc3)nc2c(=O)[nH]1 (stereo not shown) [γ-glucose folate, γ-[^19F]-Glucose Folate] | 0.8 ± 0.1 nM | 1.6 ± 0.1 nM |  |  |  |
| Nc1nc2ncc(CNc3ccc(C(=O)NC(CCC(=O)O)C(=O)NC(Cc4cn(C5OC(CO)C(O)C(O)C5[18F])nn4)C(=O)O)cc3)nc2c(=O)[nH]1 (stereo not drawn) [α-[^18F]-glucose folate] |  |  | −4.20±0.06 | excellent images of KB tumor xenografts | highly specific and blocked by natural folic acid |
